From patent publication US11234941B2, “Oil-free carotenoid composition” (GAT Therapeutics S.L., priority 2017, dated 2022) come the findings set out here.

Data set [1] concerns the target T1, glucocorticoid receptor (GR) (Homo sapiens, UniProt P04150).
T1 construct: the UAS-driven beta-lactamase is the reporter
T1 sequence (P04150 524-777 limits assumed): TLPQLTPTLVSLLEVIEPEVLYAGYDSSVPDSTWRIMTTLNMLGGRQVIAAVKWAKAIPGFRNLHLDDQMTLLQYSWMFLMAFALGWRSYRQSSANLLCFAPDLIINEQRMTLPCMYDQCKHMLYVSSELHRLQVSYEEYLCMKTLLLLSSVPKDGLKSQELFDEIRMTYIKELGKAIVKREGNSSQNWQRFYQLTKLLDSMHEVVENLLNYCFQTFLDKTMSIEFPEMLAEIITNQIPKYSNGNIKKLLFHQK
As to the kind of experiment: SelectScreen cell-based GR antagonist assay (UAS-bla HEK 293T, beta-lactamase reporter, dexamethasone as agonist). The protocol:
An antagonist assay for GR was performed by SelectScreen® Cell-Based Nuclear Receptor Profiling Service of Life Technologies. […] Detection method is based on a beta-lactamase reporter gene (bla) combined with a FRET-enabled substrate. The data obtained in these assays was modelled to a sigmoidal dose response curve.

The nature of data set [2]: Observation of precipitation and aggregates during nanoparticle preparation. Conditions: after addition of the xanthophyll to the albumin solution.
Method: To prepare bovine serum albumin (BSA)—astaxanthin nanoparticles, albumin (20 mg, 5 mg or 1 mg depending on the protein:carotenoid ratio) was dissolved in 1 mL deionized water and 1 mg of astaxanthin was dissolved in 0.25 mL THF. The astaxanthin solution was slowly added to the BSA solution under stirring and nitrogen atmosphere. When the addition of carotene was completed the solution was stirred at room temperature for 10 additional minutes. The organic solvent (THF) in the mixed solution was slowly removed by speed vacuum at 25° C. Distillation was completed when the total solution volume was reduced by ⅔. Finally, the nanoparticle solutions were filtered through a 0.22 μm PES membrane filter and immediately stored in the dark at 4° C.
Where [3] appears, read: at 10 μM, against dexamethasone.

For the compound `CC(=C/C=C/C(C)=C/C=C/C=C(C)/C=C/C=C(\C)C=C=C1C(C)(C)C[C@H](O)C[C@@]1(C)O)/C=C/[C@@]12O[C@]1(C)C[C@@H](O)CC2(C)C` [Neoxanthin, neoxanthin], the GR inhibition result in data set [1] (setting [3]) is “above 85%”. For `CC1=C(/C=C/C(C)=C/C=C/C(C)=C/C=C/C=C(C)/C=C/C=C(C)/C=C/C2=C(C)C(=O)[C@@H](O)CC2(C)C)C(C)(C)C[C@H](O)C1=O` [astaxanthin, reference compound], the “antagonist effect on GR” value in data set [1] (against dexamethasone) is on record as “neither compound exercised an antagonist effect on GR”.

In the case of `CC1=C(/C=C/C(C)=C/C=C/C(C)=C/C=C/C=C(C)/C=C/C=C(C)/C=C/C2=C(C)CCCC2(C)C)C(C)(C)CCC1` [beta-carotene, reference compound], the “antagonist effect on GR” value in data set [1] (against dexamethasone) is on record as “neither compound exercised an antagonist effect on GR”.

As to `CC(=O)O[C@H]1CC(C)(C)C(=C=C/C(C)=C/C=C/C(C)=C/C=C/C=C(C)/C=C/C=C(\C)C(=O)/C=C2/C(C)(C)C[C@H](O)C[C@@]2(C)O)[C@](C)(O)C1` [isofucoxanthin], in data set [1] (setting [3]), the GR inhibition is reported as 80%. For orientation: inhibition means the share of the control response that was lost under treatment. The compound `CC1=C[C@H](O)CC(C)(C)[C@H]1/C=C/C(C)=C/C=C/C(C)=C/C=C/C=C(C)/C=C/C=C(C)/C=C/C1=C(C)C[C@@H](O)CC1(C)C` [lutein] came in with an inhibition at 10 µM in data set [1] (HEK-293T, at 10 μM, against dexamethasone) of 80%. Take fucoxanthin: the “formation of aggregates with poor solubility during nanoparticle preparation” value in data set [2] is on record as “not observed”. Also, the “concentration from which it acts as GR antagonist” value in data set [1] (against the agonist dexamethasone) is 30 nM. Moreover, the GR inhibition in data set [1] (setting [3]) is recorded as 50%.
